# Test results from patent US11000033B2, “Ketone or oxime compound, and herbicide” (NISSAN CHEMICAL CORPORATION, priority 2014, dated 2021).
# How the values were obtained:
# Format in all cases: in vivo
# [1] = system: transplanted rice plant; assay: Test Example 1: effect on crop, application before weed generation in submerged conditions (symbol a); details: application herbicide amount 320 g/ha
# In short: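 Alluvial soil pots flooded to 4 cm water, sown with Echinochloa oryzacola, Scirpus juncoides and Monochoria vaginalis, then transplanted with 2.5 leaf stage rice seedlings; pre-emergence application. Greenhouse 25° C. to 30° C.; scored 0–5 by herbicidal ratio 3 weeks after application.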
# [2] = system: Scirpus juncoides; assay: Test Example 2: herbicidal activity, application during weed generation in submerged conditions (symbol B); details: Table 23; application herbicide amount 320 g/ha; grade 0-5 by criteria of Test Example 1
# In short: (§1)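 Flooded-soil post-emergence test: emulsion of compound, water-diluted to target rate, applied to paddy water surface at 1–2 leaf stage of mixed-sown weeds (alluvial soil, 4 cm water, 25–30° C. greenhouse); visual rating 3 weeks after application.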
# [3] = system: Monochoria vaginalis; assay: Test Example 2: herbicidal activity, application during weed generation in submerged conditions (symbol C); details: Table 23; application herbicide amount 320 g/ha; grade 0-5 by criteria of Test Example 1
# In short: as §1
# [4] = system: Echinochloa crus-galli var. crus-galli; assay: Test Example 4: herbicidal effect by soil treatment (symbol H); details: for H (Echinochloa crus-galli var. crus-galli) herbicidal effect grade: application herbicide amount 320 g/ha; for H: Echinochloa crus-galli var. crus-galli, herbicidal effect grade: 320 g/ha
# In short: (§2)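 Seeds were sown in sterilized diluvial soil, covered with about 1.5 cm of soil, and the soil surface was sprayed with a water-diluted emulsion of the compound at a predetermined rate. Plants grew in a greenhouse at 25° C. to 30° C.; effects were scored visually 3 weeks after application.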
# [5] = system: Avena fatua; assay: Test Example 4: herbicidal effect by soil treatment (symbol I); details: for I (Avena fatua) herbicidal effect grade: application herbicide amount 320 g/ha; for I: Avena fatua, herbicidal effect grade: 320 g/ha
# In short: as §2
# [6] = system: Lolium multiflorum Lam.; assay: Test Example 4: herbicidal effect by soil treatment (symbol K); details: for K (Lolium multiflorum Lam.) herbicidal effect grade: application herbicide amount 320 g/ha; for K: Lolium multiflorum Lam., herbicidal effect grade: 320 g/ha
# In short: as §2
# [7] = system: Abutilon theophrasti; assay: Test Example 4: herbicidal effect by soil treatment (symbol M); details: for M (Abutilon theophrasti) herbicidal effect grade: application herbicide amount 320 g/ha; for M: Abutilon theophrasti, herbicidal effect grade: 320 g/ha
# In short: as §2
# [8] = system: soybean; assay: Test Example 4: effect on crop by soil treatment (symbol d); details: for d (soybean) effect on crop grade: application herbicide amount 320 g/ha; for d: soybean, effect grade on crop: 320 g/ha
# In short: (§3)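 The test used sterilized diluvial soil. Seed was set down in spots and overlaid with about 1.5 cm of soil before growth in a greenhouse kept at 25° C. to 30° C.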
# [9] = system: rice; assay: Test Example 4: effect on crop by soil treatment (symbol b); details: for b (directly sowed rice plant) effect on crop grade: application herbicide amount 320 g/ha; for b: directly sowed rice plant, effect grade on crop: 320 g/ha
# In short: as §3
# [10] = system: wheat; assay: Test Example 4: effect on crop by soil treatment (symbol e); details: for e (wheat) effect on crop grade: application herbicide amount 320 g/ha; for e: wheat, effect grade on crop: 320 g/ha
# In short: as §3
# [11] = system: beet; assay: Test Example 4: effect on crop by soil treatment (symbol f); details: for f (beet) effect on crop grade: application herbicide amount 320 g/ha; for f: beet, effect grade on crop: 320 g/ha
# In short: as §3
# [12] = system: Digitaria ciliaris; assay: Test Example 5: herbicidal effect by foliage application, plastic box (symbol F); details: 320 g/ha, 3 weeks after application
# In short: (§4)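 After sowing into sterilized diluvial soil and growing two weeks under glass at 25° C. to 30° C., seedlings receive a uniform foliar spray of diluted emulsion. Damage is judged visually three weeks on.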
# [13] = system: Echinochloa crus-galli var. crus-galli; assay: Test Example 5: herbicidal effect by foliage application, plastic box (symbol H); details: 320 g/ha, 3 weeks after application
# In short: as §4
# [14] = system: Lolium multiflorum Lam.; assay: Test Example 5: herbicidal effect by foliage application, plastic box (symbol K); details: 320 g/ha, 3 weeks after application
# In short: as §4
# [15] = system: Amaranthus retroflexus; assay: Test Example 5: herbicidal effect by foliage application, plastic box (symbol N); details: 320 g/ha, 3 weeks after application
# In short: as §4
# [16] = system: Veronica persica; assay: Test Example 5: herbicidal effect by foliage application, plastic box (symbol R); details: 320 g/ha, 3 weeks after application
# In short: as §4
# [17] = system: corn; assay: Test Example 5: effect on crop by foliage application, plastic box (symbol c); details: 320 g/ha, 3 weeks after application
# In short: (§5)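 Diluvial soil, sterilized and boxed (21 × 13 × 7 cm), received spot-sown seed covered by about 1.5 cm soil; plants were then greenhouse-grown at 25–30° C.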
# [18] = system: soybean; assay: Test Example 5: effect on crop by foliage application, plastic box (symbol d); details: 320 g/ha, 3 weeks after application
# In short: as §5
# [19] = system: rapeseed; assay: Test Example 5: effect on crop by foliage application, plastic box (symbol g); details: 320 g/ha, 3 weeks after application
# In short: as §5
SMILES,"Effect grade on crop, a: transplanted rice plant [1]","Herbicidal effect grade, B: Scirpus juncoides [2]","Herbicidal effect grade, C: Monochoria vaginalis [3]",H (Echinochloa crus-galli var. crus-galli) herbicidal effect grade [4],I (Avena fatua) herbicidal effect grade [5],K (Lolium multiflorum Lam.) herbicidal effect grade [6],M (Abutilon theophrasti) herbicidal effect grade [7],d (soybean) effect on crop grade [8],b (directly sowed rice plant) effect on crop grade [9],e (wheat) effect on crop grade [10],f (beet) effect on crop grade [11],"F: Digitaria ciliaris, herbicidal effect grade [12]","H: Echinochloa crus-galli var. crus-galli, herbicidal effect grade [13]","K: Lolium multiflorum Lam., herbicidal effect grade [14]","N: Amaranthus retroflexus, herbicidal effect grade [15]","R: Veronica persica, herbicidal effect grade [16]","c: corn, effect on crop grade [17]","d: soybean, effect on crop grade [18]","g: rapeseed, effect on crop grade [19]","H: Echinochloa crus-galli var. crus-galli, herbicidal effect grade [4]",also measured
CON=C(CC1CC1)CC1CC(O)=C(c2c(C)cc(C)cc2C)C1=O (stereo not shown) [1-070],4 (Herbicidal ratio of 70% or higher and lower than 90%),0 (Herbicidal ratio of 5% or lower (almost no effect)),0 (Herbicidal ratio of 5% or lower (almost no effect)),4 (Herbicidal ratio of 70% or higher and lower than 90%),0 (Herbicidal ratio of 5% or lower (almost no effect)),5 (Herbicidal ratio of 90% or more (almost completely withered)),0 (Herbicidal ratio of 5% or lower (almost no effect)),0 (Herbicidal ratio of 5% or lower (almost no effect)),5 (Herbicidal ratio of 90% or more (almost completely withered)),0 (Herbicidal ratio of 5% or lower (almost no effect)),0 (Herbicidal ratio of 5% or lower (almost no effect)),1 (Herbicidal ratio of 5% or higher and lower than 20%),3 (Herbicidal ratio of 40% or higher and lower than 70%),5 (Herbicidal ratio of 90% or more (almost completely withered)),0 (Herbicidal ratio of 5% or lower (almost no effect)),2 (Herbicidal ratio of 20% or higher and lower than 40%),4 (Herbicidal ratio of 70% or higher and lower than 90%),0 (Herbicidal ratio of 5% or lower (almost no effect)),3 (Herbicidal ratio of 40% or higher and lower than 70%),–,–
CON=C(C)CC1CC(OC(=O)COc2ccc(C)cc2)=C(c2c(C)cc(C)cc2C)C1=O (stereo not shown) [1-072],5 (Herbicidal ratio of 90% or more (almost completely withered)),3 (Herbicidal ratio of 40% or higher and lower than 70%),0 (Herbicidal ratio of 5% or lower (almost no effect)),5 (Herbicidal ratio of 90% or more (almost completely withered)),4 (Herbicidal ratio of 70% or higher and lower than 90%),5 (Herbicidal ratio of 90% or more (almost completely withered)),4 (Herbicidal ratio of 70% or higher and lower than 90%),0 (Herbicidal ratio of 5% or lower (almost no effect)),5 (Herbicidal ratio of 90% or more (almost completely withered)),4 (Herbicidal ratio of 70% or higher and lower than 90%),0 (Herbicidal ratio of 5% or lower (almost no effect)),5 (Herbicidal ratio of 90% or more (almost completely withered)),5 (Herbicidal ratio of 90% or more (almost completely withered)),5 (Herbicidal ratio of 90% or more (almost completely withered)),5 (Herbicidal ratio of 90% or more (almost completely withered)),3 (Herbicidal ratio of 40% or higher and lower than 70%),5 (Herbicidal ratio of 90% or more (almost completely withered)),2 (Herbicidal ratio of 20% or higher and lower than 40%),4 (Herbicidal ratio of 70% or higher and lower than 90%),–,–
CON=C(CC1CC(O)=C(c2c(C)cc(C)cc2C)C1=O)C1CCCC1 (stereo not shown) [1-078],5 (Herbicidal ratio of 90% or more (almost completely withered)),0 (Herbicidal ratio of 5% or lower (almost no effect)),0 (Herbicidal ratio of 5% or lower (almost no effect)),–,–,–,–,–,–,–,–,–,–,–,–,–,–,–,–,2 (Herbicidal ratio of 20% or higher and lower than 40%),"I: Avena fatua, herbicidal effect grade [5]: 0 (Herbicidal ratio of 5% or lower (almost no effect)); K: Lolium multiflorum Lam., herbicidal effect grade [6]: 5 (Herbicidal ratio of 90% or more (almost completely withered)); M: Abutilon theophrasti, herbicidal effect grade [7]: 0 (Herbicidal ratio of 5% or lower (almost no effect)); d: soybean, effect grade on crop [8]: 0 (Herbicidal ratio of 5% or lower (almost no effect)); b: directly sowed rice plant, effect grade on crop [9]: 5 (Herbicidal ratio of 90% or more (almost completely withered)); e: wheat, effect grade on crop [10]: 0 (Herbicidal ratio of 5% or lower (almost no effect)); f: beet, effect grade on crop [11]: 0 (Herbicidal ratio of 5% or lower (almost no effect)); F: Digitaria ciliaris, herbicidal effect (criteria 0-5) [12]: 1 (Herbicidal ratio of 5% or higher and lower than 20%); H: Echinochloa crus-galli var. crus-galli, herbicidal effect (criteria 0-5) [13]: 5 (Herbicidal ratio of 90% or more (almost completely withered)); K: Lolium multiflorum Lam., herbicidal effect (criteria 0-5) [14]: 5 (Herbicidal ratio of 90% or more (almost completely withered)); N: Amaranthus retroflexus, herbicidal effect (criteria 0-5) [15]: 0 (Herbicidal ratio of 5% or lower (almost no effect)); R: Veronica persica, herbicidal effect (criteria 0-5) [16]: 0 (Herbicidal ratio of 5% or lower (almost no effect)); c: corn, effect on crop (criteria 0-5) [17]: 3 (Herbicidal ratio of 40% or higher and lower than 70%); d: soybean, effect on crop (criteria 0-5) [18]: 0 (Herbicidal ratio of 5% or lower (almost no effect)); g: rapeseed, effect on crop (criteria 0-5) [19]: 3 (Herbicidal ratio of 40% or higher and lower than 70%)"
CON=C(C)CC1CC(OC(=O)COc2ccc(C=O)cc2)=C(c2c(C)cc(C)cc2C)C1=O (stereo not shown) [1-079],5 (Herbicidal ratio of 90% or more (almost completely withered)),4 (Herbicidal ratio of 70% or higher and lower than 90%),3 (Herbicidal ratio of 40% or higher and lower than 70%),–,–,–,–,–,–,–,–,–,–,–,–,–,–,–,–,5 (Herbicidal ratio of 90% or more (almost completely withered)),"I: Avena fatua, herbicidal effect grade [5]: 3 (Herbicidal ratio of 40% or higher and lower than 70%); K: Lolium multiflorum Lam., herbicidal effect grade [6]: 5 (Herbicidal ratio of 90% or more (almost completely withered)); M: Abutilon theophrasti, herbicidal effect grade [7]: 5 (Herbicidal ratio of 90% or more (almost completely withered)); d: soybean, effect grade on crop [8]: 1 (Herbicidal ratio of 5% or higher and lower than 20%); b: directly sowed rice plant, effect grade on crop [9]: 5 (Herbicidal ratio of 90% or more (almost completely withered)); e: wheat, effect grade on crop [10]: 4 (Herbicidal ratio of 70% or higher and lower than 90%); f: beet, effect grade on crop [11]: 0 (Herbicidal ratio of 5% or lower (almost no effect)); F: Digitaria ciliaris, herbicidal effect (criteria 0-5) [12]: 5 (Herbicidal ratio of 90% or more (almost completely withered)); H: Echinochloa crus-galli var. crus-galli, herbicidal effect (criteria 0-5) [13]: 5 (Herbicidal ratio of 90% or more (almost completely withered)); K: Lolium multiflorum Lam., herbicidal effect (criteria 0-5) [14]: 5 (Herbicidal ratio of 90% or more (almost completely withered)); N: Amaranthus retroflexus, herbicidal effect (criteria 0-5) [15]: 0 (Herbicidal ratio of 5% or lower (almost no effect)); R: Veronica persica, herbicidal effect (criteria 0-5) [16]: 3 (Herbicidal ratio of 40% or higher and lower than 70%); c: corn, effect on crop (criteria 0-5) [17]: 5 (Herbicidal ratio of 90% or more (almost completely withered)); d: soybean, effect on crop (criteria 0-5) [18]: 4 (Herbicidal ratio of 70% or higher and lower than 90%); g: rapeseed, effect on crop (criteria 0-5) [19]: 5 (Herbicidal ratio of 90% or more (almost completely withered))"
